SMILES strings stand for the structures.

The results in this text go back to patent US9504674B2, “TrkB agonists and methods of use” (EMORY UNIVERSITY, priority 2010, dated 2016).

One assay deals with T1, TrkB F616A (Mus musculus, UniProt P15209, F616A).
T1 construct: from tissue; host or cells: TrkB F616A knock-in mice (brain; whole animal in the forced swim test)
Briefly: Neuroprotection against KA in TrkB F616A knockin mice with or without 1NMPP1. It is filed as in vivo. The conditions noted are these: for KA-induced caspase-3 activation in TrkB F616A mice: 5 mg/kg oral 4 h before KA 20 mg/kg; for KA-induced caspase-3 activation in TrkB F616A mice / TrkB F616A activation (phosphorylation) in knockin mice: without 1NMPP1; for protective effect against KA in F616A mice after 1NMPP1 pretreatment: 5 mg/kg oral 4 h before KA, 1NMPP1 in drinking water; for TrkB phosphorylation in F616A mice after 1NMPP1 pretreatment / TrkB F616A activation (phosphorylation) in knockin mice: 5 mg/kg oral. As for the experimental part:
4′-DMA-7,8-DHF and 7,8-DHF suppressed KA-induced caspase-3 activation in TrkB F616A mutant knockin mice, which cannot be blocked by 1NMPP1 (top panel).
TrkB F616A knockin mice (2-3 months old) were fed with 1NMPP1 (25 mM) in drinking water one day before pharmacological reagent treatment. Next day, the mice were orally injected with 7,8-DHF or 4′-DMA-7,8-DHF (5 mg/kg) 4 h before kainic acid (20 mg/kg). The control mice were injected with saline, 1NMPP1, kainic acid alone or administrated 7,8-DHF or 4′-DMA-7,8-DHF 4 h before kainic acid. In 4 days, the mice were sacrificed and brains were homogenated and ultracentrafuged. The supernatant ([…]) was employed for SDS-PAGE and immunoblotting analysis with indicated antibodies, respectively.

For the next assay, the system named is MAPK. Briefly: MAPK phosphorylation in primary neurons (immunoblotting). The format is cell-based, rat. The conditions noted are these: 500 nM, time course. As for the experimental part: Rat primary neurons were treated with 500 nM. 4′-DMA-7,8-DHF from various time points. The neuronal lysates were analyzed with various antibodies. 4′-DMA-7,8-DHF rapidly activated TrkB and its downstream signaling cascades (left panels). […] One mg/kg of 4′-DMA-7,8-DHF and 7,8-DHF were orally administrated into C57 BL/6J mice and TrkB phosphorylation and its downstream signaling cascades including Akt and MAPK in mouse brain were analyzed by immunoblotting at various time points. TrkB activation by 4′-DMA-7,8-DHF peaked at 4 h, whereas the maximal TrkB activation by 7,8-DHF in mouse brain occurred at 1-2 h (middle panels).
To compare the TrkB activation by these synthetic compounds, primary cortical cultures were prepared. Cortical neurons were treated with 500 nM of various compounds for 20 min and cell lysates were collected. […] Replacing the H-bond acceptor O atom with hydrogen bond donor NH abolishes its stimulatory effect. […] On the other hand, 7,8-DHF provoked TrkB activation with the minimal concentration of 100 nM (FIG. 2B, right panels). To further study 4′-DMA-7,8-DHF's kinetics on TrkB activation, primary neurons were treated for various time points. 4′-DMA-7,8-DHF swiftly activated TrkB as soon as 5 minutes following treatment. […] TrkB activation was monitored at different time points.
Background: Immunoblotting shows a protein as a band on a membrane.

T1 sequence (P15209 32-821 F616A): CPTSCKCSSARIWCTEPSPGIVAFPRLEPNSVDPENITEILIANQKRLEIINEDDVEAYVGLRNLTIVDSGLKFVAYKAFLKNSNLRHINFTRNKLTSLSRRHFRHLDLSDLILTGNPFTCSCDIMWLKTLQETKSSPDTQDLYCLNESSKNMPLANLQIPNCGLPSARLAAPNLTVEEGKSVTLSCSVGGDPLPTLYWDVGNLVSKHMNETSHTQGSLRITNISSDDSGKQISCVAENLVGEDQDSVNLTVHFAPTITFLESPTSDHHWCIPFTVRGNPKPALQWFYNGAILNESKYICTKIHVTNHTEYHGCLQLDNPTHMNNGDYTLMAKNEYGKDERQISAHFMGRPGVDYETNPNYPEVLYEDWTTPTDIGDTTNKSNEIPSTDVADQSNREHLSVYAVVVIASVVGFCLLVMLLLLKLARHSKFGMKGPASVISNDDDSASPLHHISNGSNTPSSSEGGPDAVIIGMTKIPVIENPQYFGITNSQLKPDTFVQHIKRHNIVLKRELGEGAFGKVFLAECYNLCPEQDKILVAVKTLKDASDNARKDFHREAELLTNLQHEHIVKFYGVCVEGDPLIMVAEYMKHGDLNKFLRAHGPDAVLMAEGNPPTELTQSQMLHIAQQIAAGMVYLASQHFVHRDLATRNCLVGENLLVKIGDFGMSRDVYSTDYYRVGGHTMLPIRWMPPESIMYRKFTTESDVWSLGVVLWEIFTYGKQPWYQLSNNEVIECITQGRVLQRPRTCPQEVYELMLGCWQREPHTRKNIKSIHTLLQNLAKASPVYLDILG

As to `CN(C)c1ccc(-c2cc(=O)c3ccc(O)c(O)c3o2)cc1` [4′-DMA-7,8-DHF, 4′-dimethylamino-7,8-dihydroxyflavone], at TrkB F616A, the “KA-induced caspase-3 activation in TrkB F616A mice” value is on record as “markedly diminished”, the “protective effect against KA in F616A mice after 1NMPP1 pretreatment” value was “abolished”, the “TrkB phosphorylation in F616A mice after 1NMPP1 pretreatment” value was “notably blocked by 1NMPP1 pretreatment” and the “TrkB F616A activation (phosphorylation) in knockin mice” value is “strongly activated”. Further, the “time of peak MAPK phosphorylation” value in the assay with MAPK is recorded as 10 min.

For `O=c1cc(-c2ccccc2)oc2c(O)c(O)ccc12` [7,8-DHF, 7,8-dihydroxyflavone, reference compound], on TrkB F616A, the “KA-induced caspase-3 activation in TrkB F616A mice” value is reported as “markedly diminished”, the “protective effect against KA in F616A mice after 1NMPP1 pretreatment” value is listed as “abolished”, the “TrkB phosphorylation in F616A mice after 1NMPP1 pretreatment” value was “notably blocked by 1NMPP1 pretreatment” and the “TrkB F616A activation (phosphorylation) in knockin mice” value is given as “strongly activated”.
